Measured values from patent US20240368157A1, “FORMS AND COMPOSITIONS OF A JAK2 INHIBITOR” (Ajax Therapeutics, Inc., priority 2023, published 2024).
Converted amounts (≈) assume the structure as drawn.

Key:
JAK3 = biological target: T1, JAK3 (Homo sapiens, UniProt P52333); experiment: JAK Family Selectivity Assay (JAK3 vs JAK2 binding affinity); settings: selectivity over JAK2
T1 construct: made in house; host or cells: E. coli (BL21-derived, T7 phage display) or HEK-293
T1 sequence (P52333 1-1124): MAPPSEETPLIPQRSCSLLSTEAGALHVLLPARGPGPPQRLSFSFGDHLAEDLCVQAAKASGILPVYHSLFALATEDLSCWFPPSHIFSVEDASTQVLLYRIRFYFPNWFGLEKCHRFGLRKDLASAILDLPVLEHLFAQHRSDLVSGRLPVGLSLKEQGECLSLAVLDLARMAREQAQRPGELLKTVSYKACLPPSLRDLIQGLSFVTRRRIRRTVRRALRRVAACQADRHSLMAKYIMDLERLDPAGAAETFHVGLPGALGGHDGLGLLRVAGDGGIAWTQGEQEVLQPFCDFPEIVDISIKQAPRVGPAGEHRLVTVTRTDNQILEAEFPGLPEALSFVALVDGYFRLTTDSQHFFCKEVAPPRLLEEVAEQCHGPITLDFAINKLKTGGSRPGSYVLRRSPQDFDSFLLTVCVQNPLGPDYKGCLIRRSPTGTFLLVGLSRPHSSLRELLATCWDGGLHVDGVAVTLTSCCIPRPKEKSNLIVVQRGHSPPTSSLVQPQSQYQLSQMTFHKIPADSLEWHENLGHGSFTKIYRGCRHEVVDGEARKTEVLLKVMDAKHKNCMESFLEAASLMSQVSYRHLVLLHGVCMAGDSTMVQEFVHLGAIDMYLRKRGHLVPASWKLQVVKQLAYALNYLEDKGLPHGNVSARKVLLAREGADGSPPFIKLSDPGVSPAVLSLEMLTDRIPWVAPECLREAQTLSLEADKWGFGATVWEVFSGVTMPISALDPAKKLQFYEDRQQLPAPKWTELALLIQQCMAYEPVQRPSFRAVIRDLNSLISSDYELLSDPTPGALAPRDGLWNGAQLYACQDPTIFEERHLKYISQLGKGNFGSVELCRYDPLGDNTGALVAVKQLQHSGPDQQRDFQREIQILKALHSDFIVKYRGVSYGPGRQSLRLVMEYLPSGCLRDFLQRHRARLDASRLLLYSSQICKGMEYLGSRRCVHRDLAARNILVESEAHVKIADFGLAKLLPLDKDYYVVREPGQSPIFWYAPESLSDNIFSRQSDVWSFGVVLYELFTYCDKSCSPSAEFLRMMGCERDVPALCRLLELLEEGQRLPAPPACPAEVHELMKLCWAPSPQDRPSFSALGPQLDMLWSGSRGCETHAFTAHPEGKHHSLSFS
Description: Provided compounds are evaluated for selectivity by comparing their JAK2 binding affinity (Kd) in the above JAK2 Binding Assay with their binding affinity (Kd) for one or more other kinases. Binding affinity for other kinases is determined as follows: Kinase-tagged T7 phage strains are prepared in an E. coli host derived from the BL21 strain. E. coli are grown to log-phase and infected with T7 phage and incubated with shaking at 32° C. until lysis. The lysates are centrifuged and filtered to remove cell debris. The remaining kinases are produced in HEK-293 cells and subsequently tagged with DNA for qPCR detection. Streptavidin-coated magnetic beads are treated with biotinylated small molecule ligands for 30 minutes at room temperature to generate affinity resins for kinase assays. The liganded beads are blocked with excess biotin and washed with blocking buffer (SeaBlock (Pierce), 1% BSA, 0.05% Tween 20, 1 mM DTT) to remove unbound ligand and to reduce non-specific binding. Binding reactions are assembled by combining kinases, liganded affinity beads, and test compounds in 1× binding buffer (20% SeaBlock, 0.17×PBS, 0.05% Tween 20, 6 mM DTT). Test compounds are prepared as 111× stocks in 100% DMSO. Kds are determined using an 11-point 3-fold compound dilution series with three DMSO control points. […] The kinase concentration in the eluates is measured by qPCR. […]

Kinetic Solubility Assay = format: physicochemical; settings: aqueous buffer, kinetic from dmso stock, PBS, RT, pH of the reported value not stated (method: pH 4.0 and pH 7.4)
Description: Stock solutions of test compounds are prepared in DMSO at the concentration of 10 mM, and a stock solution of control compound is prepared in DMSO at the concentration of 30 mM. Diclofenac is used as positive control in the assay. 30 μL stock solution of each compound is placed into their a 96-well rack, followed by adding 970 μL of PBS at pH 4.0 and pH 7.4 into each vial of the cap-less solubility sample plate. This study is performed in duplicate. One stir stick is added to each vial and then vials are sealed using a molded PTDE/SIL 96-Well Plate Cover. The solubility sample plate is transferred to the Thermomixer comfort plate shaker and incubated at RT for 2 hours with shaking at 1100 rpm. After 2 hours incubation, stir sticks are removed using a big magnet and all samples from the solubility sample plate are transferred into the filter plate. All the samples are filtered by vacuum manifold. The filtered samples are diluted with methanol. Samples are analyzed by LC-MS/MS and quantified against a standard of known concentration in DMSO using LC coupled with Mass spectral peak identification and quantitation. The solubility values of the test compounds are calculated as follows, wherein INJ VOL is injection volume, DF is dilution factor, and STD is standard: […]

[1] = Interconversion slurry experiments; settings: slurry EtOH:H2O (90:10), 65° C.; material with small peak at ˜8.0 °2θ
Description: Mixtures of Form H and Form I with Form B were utilized in these interconversion slurry experiments. […] The interconversion slurries were performed at ambient and elevated (65° C.) temperatures in various solvents and solvent mixtures.

Structure (SMILES)	JAK3/JAK2 Kd/Kd ratio (JAK3)	solubility at 2 h (Kinetic Solubility Assay)	degradation by HPLC analysis [1]
CN(C)C(=O)Nc1cc(Oc2cnc3nc(Nc4cc(C(F)(F)F)cn(C)c4=O)n(C)c3c2C#N)ccn1 [Compound 1, 3-(4-((7-cyano-1-methyl-2-((1-methyl-2-oxo-5-(trifluoromethyl)-1,2-dihydropyridin-3-yl)amino)-1H-imidazo[4,5-b]pyridin-6-yl)oxy)pyridin-2-yl)-1,1-dimethylurea]	A (Kd/Kd ratio≥1000)	9 to 100 µM (≈ 4.75 to 52.7 µg/mL)	small amount of degradation
CCN1CCN(Cc2ccc(Nc3nc4ccc(Oc5ccnc(NC(C)=O)c5)cc4n3C)cc2C(F)(F)F)CC1 [Compound R-1, reference compound]	A (Kd/Kd ratio≥1000)	100 to 200 µM (≈ 56.8 to 114 µg/mL)	–
